The values below come from patent publication US12465603B2, “Phthalazinone based modulators for the treatment of disease” (Soley Therapeutics, Inc., priority 2022, dated 2025).

As a reminder, the IC50 is the midpoint of a concentration-inhibition curve. The low end stands for greater potency, the high end for weaker potency.

Test [1] deals with PA1 (ECACC, 90013101) cells. As to the kind of experiment: Cell viability assay (Cell Titre Glo, 72 hours) in PA1 cells. Type of test: cell-based. The following applies: Homo sapiens, PA-1. The method, then: (§1) Example 31: Cell Viability Assays
(§2) Phthalazinone based modulators as described herein were dispensed into 384 well CulturPlates™ (PerkinElmer) using Echo 555 acoustic dispensing in 10-point dose response curves at a final top concentration of 30 μM following a 1 in 3 dilution series. A2058 (ATCC, CRL-11147) or PA1 (ECACC, 90013101) cells were added directly to a compound at a density of 5000 cells per well in a final volume of 50 μL and incubated for 72 hours at 37° C., 5% CO2. Viability was assessed using Cell Titre Glo® (Promega) according to the manufacturer's instructions (25 μL per well) and IC50 curves were generated for each inhibitor using IDBS ActivityBase data analysis software.

Test [2] relates to A2058 (ATCC, CRL-11147) cells. As to the kind of experiment: Cell viability assay (Cell Titre Glo, 72 hours) in A2058 cells. To be noted: Homo sapiens. Type of test: cell-based. The method, then:
as §1, §2

Consider `Cn1nc(C(=O)N2CCN(c3cccc(C#N)c3)CC2)c2cc(F)ccc2c1=O` [Compound 157, 3-(4-(7-fluoro-3-methyl-4-oxo-3,4-dihydrophthalazine-1-carbonyl)piperazin-1-yl)benzonitrile], for which the IC50 in test [1] and in test [2] was at most 1 µM throughout.
On to `Cc1cc(N2CCN(C(=O)c3nn(C)c(=O)c4ccc(F)cc34)CC2)ccn1` [Compound 161], for which the 50% inhibitory concentration (IC50) in test [1] and in test [2] was above 20 µM each time.
`Cn1nc(C(=O)N2CCN(c3cncc(Cl)c3)CC2)c2cc(F)ccc2c1=O` [Compound 165]: the IC50 in test [1] and in test [2] was 1 to 10 µM each time.
Take `CCn1nc(C(=O)N2CCN(c3cc(C#N)ccc3C3CC3)CC2)c2cnccc2c1=O` [Compound 242]: the IC50 in test [1] and in test [2] was at most 1 µM throughout.
As for `Cc1nc2c(N3CCN(C(=O)c4nn(C)c(=O)c5ccccc45)CC3)cccc2o1` [Compound 53], the concentration for half-maximal inhibition (IC50) in test [1] and in test [2] was 1 to 10 µM each time.
As for `CCn1nc(C(=O)N2CCN(c3ccc(F)cc3OC(F)(F)F)CC2)c2ccccc2c1=O` [Compound 120], the half-maximal inhibitory concentration (IC50) in test [1] and in test [2] was 1 to 10 µM throughout.
Regarding `CCn1nc(C(=O)N2CCN(c3cccc4c3OC(C)(C)C4)CC2)c2ccccc2c1=O` [Compound 96], the values for the IC50 in test [1] and in test [2] were at most 1 µM and 1 to 10 µM, respectively.
Turning to `COc1cncc(N2CCN(C(=O)c3nn(C)c(=O)c4ccccc34)CC2)c1` [Compound 35], the IC50 in test [1] and in test [2] was 1 to 10 µM throughout.
As for `O=C(c1nn(C2COC2)c(=O)c2ccccc12)N1CCN(c2ccccc2)CC1` [Compound 8], the half-inhibitory concentration (IC50) in test [1] and in test [2] was above 20 µM in each case.
Take `CCn1nc(C(=O)N2CCN(c3cc(Cl)cc(C#N)c3)CC2)c2cnccc2c1=O` [Compound 244]: the concentration for half-maximal inhibition (IC50) in test [1] and in test [2] was at most 1 µM in each case.
For the compound `Cn1nc(C(=O)N2CCN(c3cncc(F)c3)CC2)c2ccccc2c1=O` [Compound 38], the results for the 50% inhibitory concentration (IC50) in test [1] and in test [2] were 1 to 10 µM and 10 to 20 µM, respectively.
The matching figures for `COc1ccncc1N1CCN(C(=O)c2nn(C)c(=O)c3ccc(F)cc23)CC1` [Compound 158]: at most 1 µM and at most 1 µM.
`COc1cccc(N2CCN(C(=O)c3nn(C)c(=O)c4ncccc34)CC2)c1` [Compound 182, 5-(4-(3-methoxyphenyl)piperazine-1-carbonyl)-7-methylpyrido[2,3-d]pyridazin-8(7H)-one]: the IC50 in test [1] and in test [2] was above 20 µM in each case.
`Cc1ccncc1N1CCN(C(=O)c2nn(C)c(=O)c3ccc(F)cc23)CC1` [Compound 167]: the concentration for half-maximal inhibition (IC50) in test [1] and in test [2] was at most 1 µM throughout.
As to `CCn1nc(C(=O)N2CCN(c3ccnc4ccoc34)CC2)c2ccccc2c1=O` [Compound 95], the IC50 in test [1] and in test [2] was at most 1 µM each time.
Consider `COc1cc(F)ccc1N1CCN(C(=O)c2nn(C)c(=O)c3cnccc23)CC1` [Compound 178], for which the IC50 in test [1] and in test [2] was above 20 µM throughout.
For `COc1cc(C#N)cc(N2CCN(C(=O)c3nn(C)c(=O)c4ccccc34)CC2)c1` [Compound 224, 3-methoxy-5-(4-(3-methyl-4-oxo-3,4-dihydrophthalazine-1-carbonyl)piperazin-1-yl)benzonitrile], the IC50 in test [1] and in test [2] was at most 1 µM in each case.
In the case of `Cn1nc(C(=O)N2CCN(c3ccc4nccn4c3)CC2)c2ccccc2c1=O` [Compound 202], the IC50 in test [1] and in test [2] was above 20 µM throughout.
With `Cn1nc(C(=O)N2CCN(c3cccc4nccn34)CC2)c2ccccc2c1=O` [Compound 231, 4-(4-(imidazo[1,2-a]pyridin-5-yl)piperazine-1-carbonyl)-2-methylphthalazin-1(2H)-one], the IC50 in test [1] and in test [2] was above 20 µM throughout.
Turning to `Cn1nc(C(=O)N2CCN(c3cncnc3C3CC3)CC2)c2ccccc2c1=O` [Compound 40], the IC50 in test [1] and in test [2] was 1 to 10 µM each time.
For `COc1cccc(N2CCN(C(=O)c3nn(C)c(=O)c4cnccc34)CC2)c1` [Compound 172, 1-(4-(3-methoxyphenyl)piperazine-1-carbonyl)-3-methylpyrido[3,4-d]pyridazin-4(3H)-one], the half-inhibitory concentration (IC50) in test [1] and in test [2] was 1 to 10 µM throughout.
For the compound `CCn1nc(C(=O)N2CCN(c3ncc(F)cc3C3CC3)CC2)c2ccccc2c1=O` [Compound 88], the IC50 in test [1] and in test [2] was at most 1 µM throughout.
Regarding `CC(C)c1cncc(N2CCN(C(=O)c3nn(C)c(=O)c4ccccc34)CC2)c1` [Compound 204], the IC50 in test [1] and in test [2] was above 20 µM in each case.
As to `Cn1nc(C(=O)N2CCN(c3ccnc4cnn(C)c34)CC2)c2ccccc2c1=O` [Compound 193], the 50% inhibitory concentration (IC50) in test [1] and in test [2] was above 20 µM each time.
As for `CCn1nc(C(=O)N2CCN(c3ncc(C#N)cc3F)CC2)c2ccccc2c1=O` [Compound 86], the 50% inhibitory concentration (IC50) in test [1] and in test [2] was above 20 µM each time.
As for `CCn1nc(C(=O)N2CCN(c3cccc4c3oc(=O)n4C)CC2)c2ccccc2c1=O` [Compound 90], the IC50 in test [1] and in test [2] was above 20 µM each time.
In the case of `COc1c(F)cncc1N1CCN(C(=O)c2nn(C)c(=O)c3ccc(F)cc23)CC1` [Compound 233], the half-inhibitory concentration (IC50) in test [1] is at most 1 µM; in test [2], 1 to 10 µM.
`Cn1nc(C(=O)N2CCN(c3ccc4c(c3)OCC4)CC2)c2ccccc2c1=O` [Compound 51]: the values for the half-inhibitory concentration (IC50) in test [1] and in test [2] were 10 to 20 µM and above 20 µM, respectively.
For `CCn1nc(C(=O)N2CCN(c3ccccc3OCCOC)CC2)c2ccccc2c1=O` [Compound 129], in that order: above 20 µM and above 20 µM.
For the compound `Cc1cc(Cl)cc(N2CCN(C(=O)c3nn(C)c(=O)c4ccncc34)CC2)c1` [Compound 221], the IC50 in test [1] and in test [2] was at most 1 µM throughout.
With `CCn1nc(C(=O)N2CCN(c3cc(F)cc(F)c3)CC2)c2ccccc2c1=O` [Compound 142], the 50% inhibitory concentration (IC50) in test [1] and in test [2] was at most 1 µM each time.
As for `COc1cccnc1N1CCN(C(=O)c2nn(C)c(=O)c3ccc(F)cc23)CC1` [Compound 169], the IC50 in test [1] was at most 1 µM; in test [2], 1 to 10 µM.
For `Cc1cncc(N2CCN(C(=O)c3nn(C)c(=O)c4ccc(F)cc34)CC2)c1C` [Compound 208], the concentration for half-maximal inhibition (IC50) in test [1] was at most 1 µM; in test [2] it was 1 to 10 µM.
With `Cn1nc(C(=O)N2CCN(c3cccn4ccnc34)CC2)c2ccccc2c1=O` [Compound 192], the IC50 in test [1] is 1 to 10 µM; in test [2], 10 to 20 µM.
As to `CCn1nc(C(=O)N2CCN(c3ccccc3OC3CC3)CC2)c2ccccc2c1=O` [Compound 132], the half-inhibitory concentration (IC50) in test [1] is at most 1 µM; in test [2] it was 1 to 10 µM.
As to `CCn1nc(C(=O)N2CCN(c3cc(F)ccn3)CC2)c2ccccc2c1=O` [Compound 109], the IC50 in test [1] and in test [2] was 1 to 10 µM each time.
In the case of `Cn1nc(C(=O)N2CCN(c3nccn4ccnc34)CC2)c2ccccc2c1=O` [Compound 196], the IC50 in test [1] and in test [2] was above 20 µM in each case.
Turning to `Cn1nc(C(=O)N2CCN(c3cc(F)cc(C#N)c3)CC2)c2ccccc2c1=O` [Compound 61, 3-fluoro-5-(4-(3-methyl-4-oxo-3,4-dihydrophthalazine-1-carbonyl)piperazin-1-yl)benzonitrile], the half-maximal inhibitory concentration (IC50) in test [1] and in test [2] was at most 1 µM each time.
Take `Cn1nc(C(=O)N2CCN(c3ccncc3F)CC2)c2ccccc2c1=O` [Compound 18]: the IC50 in test [1] and in test [2] was above 20 µM each time.
On to `Cn1nc(C(=O)N2CCN(c3cccc(C#N)n3)CC2)c2ccccc2c1=O` [Compound 228], for which the IC50 was in the range of 1 to 10 µM in test [1] and 10 to 20 µM in test [2].
The matching figures for `Cn1nc(C(=O)N2CCN(c3ccnc(C4CC4)c3)CC2)c2ccccc2c1=O` [Compound 76]: 1 to 10 µM and 10 to 20 µM.
For `CCn1nc(C(=O)N2CCN(c3cccc(F)c3)CC2)c2ccccc2c1=O` [Compound 146], in that order: at most 1 µM and at most 1 µM.
For `CCn1nc(C(=O)N2CCN(c3ncncc3C)CC2)c2ccccc2c1=O` [Compound 113], in that order: above 20 µM and above 20 µM.
Regarding `Cn1nc(C(=O)N2CCN(c3cccc(C4CC4)c3)CC2)c2ccccc2c1=O` [Compound 41], the IC50 in test [1] and in test [2] was at most 1 µM throughout.
For `Cn1nc(C(=O)N2CCN(c3ccc(F)c(F)c3)CC2)c2ccccc2c1=O` [Compound 43], the half-maximal inhibitory concentration (IC50) in test [1] and in test [2] was 1 to 10 µM in each case.
Take `CCn1nc(C(=O)N2CCN(c3cnccc3OC)CC2)c2ccccc2c1=O` [Compound 118]: the IC50 in test [1] and in test [2] was at most 1 µM each time.
For the compound `CCCn1nc(C(=O)N2CCN(c3ccccc3)CC2)c2ccccc2c1=O` [Compound 5], the IC50 is 10 to 20 µM in test [1] and above 20 µM in test [2].
For `Cc1ccc(N2CCN(C(=O)c3nn(C)c(=O)c4ccccc34)CC2)cc1` [Compound 10, 2-methyl-4-[4-(p-tolyl)piperazine-1-carbonyl]phthalazin-1-one], in that order: above 20 µM and above 20 µM.
The matching figures for `Cn1nc(C(=O)N2CCN(c3cncc(C#N)c3)CC2)c2ccccc2c1=O` [Compound 226]: above 20 µM and above 20 µM.
`CCn1nc(C(=O)N2CCN(c3ccc(F)cc3OC)CC2)c2ccccc2c1=O` [Compound 130]: the half-maximal inhibitory concentration (IC50) in test [1] and in test [2] was at most 1 µM each time.
